We go through two compounds from patent publication US7700610B2, “Use of tyrosine kinase inhibitors for treating allergic diseases” (AB Science, priority 2001, dated 2010).

Each structure is given as a SMILES string.

Experiment [1] concerns dog afflicted with severe atopic dermatitis. The settings on record: 3 year old dog with severe atopic dermatitis, 3 mg/kg/d together with cefalexine and ketoconazole.
A further experiment deals with dog cutaneous mast cells. Particulars: in vitro, Garcia and DeMora, Am J Vet Res 1997; cited from earlier work.

Turning to `Cc1ccc(NC(=O)c2ccc(CN3CCN(C)CC3)cc2)cc1Nc1nccc(-c2cccnc2)n1` [4-(4-méthylpipérazine-1-ylméthyl)-N-[4-méthyl-3-[(4-pyridine-3-yl-)pyrimidine-2Yl)amino-)]phényl]-benzamide], the “superficial pyodermatitis and generalized Malassezia dermatitis following treatment (FIG. 3)” value in experiment [1] was “resolution of the superficial pyodermatitis and generalized Malassezia dermatitis”.
Consider `CCOC(=O)N1CCC(=C2c3ccc(Cl)cc3CCc3cccnc32)CC1` [loratadine], for which, in the experiment on dog cutaneous mast cells, the “inhibition of histamine release” value is on record as “potent inhibition” and the prodegranulating effect result is “without a substantial prodegranulating effect”.
